The source of these data is patent US4636492A, “Inhibition of viral protease activity by peptide halomethyl ketones” (priority 1984, dated 1987).

Numbered stars: 1 amine (or outer) side, 2 acyl side, 3 side chain; on linkers, the order of the positions; unused ones are H or OH. Square brackets hold non-standard residues; d marks the D form. Peptide text beside a SMILES is read from it. * marks the point of attachment. ξ: configuration not given here. Dansyl = CN(C)c1cccc2c(S(=O)(=O)*)cccc12; Suc = O=C(CCC(=O)[*:2])[*:1]; MeOSuc = COC(=O)CCC(=O)*; Cbz = O=C(OCc1ccccc1)*; Boc = CC(C)(C)OC(=O)*; ξL = CC(C)CC(N)C(=O)O; ξV = CC(C)C(N)C(=O)O; CH2Cl = ClC*

The first data set concerns Human rhinovirus type 1A. The data set is described as follows: Plaque inhibition assay. Type of data set: cell-based. The settings on record: HeLa cells, concentration giving 90% plaque reduction.
Consider `CC(C)C[C@H](NC(=O)[C@H](CC(C)C)NC(=O)CNC(=O)[C@H](Cc1ccccc1)NC(=O)OCc1ccccc1)C(=O)CCl` [Example 12, N-carbobenzoxy-L-phenylalanyl-L-glycyl-L-leucyl-L-leucine chloromethyl ketone] (Cbz-FGLL-CH2Cl), for which the “Antiviral activity, as scored by 90% plaque reduction” value turned out to be 1 µg/mL.

Another data set deals with human HeLa-O cells.
Test: not given
Details: not given
Take `CC(C)C[C@H](NC(=O)[C@H](CC(C)C)NC(=O)CNC(=O)[C@H](Cc1ccccc1)NC(=O)OCc1ccccc1)C(=O)CCl` [Example 12, N-carbobenzoxy-L-phenylalanyl-L-glycyl-L-leucyl-L-leucine chloromethyl ketone] (Cbz-FGLL-CH2Cl): the “Cytotoxicity first detected at a concentration” value was “about 15 μg/mL”.

Another data set has as its target chymotrypsin (Bos taurus, UniProt P00766).
Test: not given
The settings on record: inhibitor concentration of 600 μg/mL; cited from earlier work.
As to `CC(=O)N[C@@H](CC(C)C)C(=O)N[C@@H](CC(C)C)C(=O)N[C@@H](Cc1ccccc1)C(C)=O` [Ac-Leu-Leu-PheCH3], the Inhibition of chymotrypsin result is listed as “no inhibition was observed”.

For the next data set, the system named is human poliomyelitisvirus type 2.
Test: not given
Details: not given
It counts as cell-based.
Take `CC(C)C[C@H](NC(=O)CNC(=O)CNC(=O)[C@H](Cc1ccccc1)NC(=O)OCc1ccccc1)C(=O)CCl` [Example 9, Z--Phe--Gly--Gly--LeuCH2 Cl] (Cbz-FGGL-CH2Cl): the “Activity (protease-inhibiting activity)” value is reported as “+++ (key: -: no activity; +/-: low activity; +: active at 100 μg/mL; ++: active at 50 μg/mL; +++: active at 10 μg/mL; ++++: active at <5 μg/mL)”. The same measure, in the same setting: with `CC(C)C[C@H](NC(=O)[C@H](Cc1ccccc1)NC(=O)CNC(=O)[C@H](Cc1ccccc1)NC(=O)OCc1ccccc1)C(=O)CCl` [Example 14, Z--Phe--Gly--Phe--LeuCH2 Cl] (Cbz-FGFL-CH2Cl) the entry was “++ (key: -: no activity; +/-: low activity; +: active at 100 μg/mL; ++: active at 50 μg/mL; +++: active at 10 μg/mL; ++++: active at <5 μg/mL)”; with `CC(C)C[C@H](NC(=O)[C@@H]1CCCN1C(=O)CNC(=O)[C@H](Cc1ccccc1)NC(=O)OCc1ccccc1)C(=O)CCl` [Example 16, Z--Phe--Gly--Pro--LeuCH2 Cl] (Cbz-FGPL-CH2Cl), “++ (key: -: no activity; +/-: low activity; +: active at 100 μg/mL; ++: active at 50 μg/mL; +++: active at 10 μg/mL; ++++: active at <5 μg/mL)”; with `CC(C)C[C@H](NC(=O)[C@H](C)NC(=O)CNC(=O)[C@H](Cc1ccccc1)Nc1ccc([N+](=O)[O-])cc1[N+](=O)[O-])C(=O)CCl` [Example 6, DNP--Phe--Gly--Ala--LeuCH2 Cl], “+++ (key: -: no activity; +/-: low activity; +: active at 100 μg/mL; ++: active at 50 μg/mL; +++: active at 10 μg/mL; ++++: active at <5 μg/mL)”. Same read-out and setting: for `CC(C)CC(NC(=O)[C@H](C)NC(=O)[C@H](CC(C)C)NC(=O)[C@H](Cc1ccccc1)NC(=O)OCc1ccccc1)C(=O)CCl` (stereo partly drawn) [Example 13, Z--Phe--Leu--Ala--LeuCH2 Cl] (Cbz-FLA[ξL]-CH2Cl) the value was “++ (key: -: no activity; +/-: low activity; +: active at 100 μg/mL; ++: active at 50 μg/mL; +++: active at 10 μg/mL; ++++: active at <5 μg/mL)”; for `CC(C)CC(NC(=O)[C@H](C)NC(=O)CNC(=O)[C@H](Cc1ccccc1)NC(=O)CCC(=O)O)C(=O)CCl` (stereo partly drawn) [Example 3, Suc--Phe--Gly--Ala--LeuCH2 Cl] (Suc-FGA[ξL]-CH2Cl), “+++ (key: -: no activity; +/-: low activity; +: active at 100 μg/mL; ++: active at 50 μg/mL; +++: active at 10 μg/mL; ++++: active at <5 μg/mL)”. Same read-out and setting: with `CC[C@H](C)[C@H](NC(=O)[C@H](C)NC(=O)CCC(=O)OC)C(=O)N[C@@H](Cc1ccccc1)C(=O)N[C@@H](CC(C)C)C(=O)CCl` [Example 17, MeOSuc--Ala--Ile--Phe--LeuCH2 Cl] (MeOSuc-AIFL-CH2Cl) the entry was “+++ (key: -: no activity; +/-: low activity; +: active at 100 μg/mL; ++: active at 50 μg/mL; +++: active at 10 μg/mL; ++++: active at <5 μg/mL)”; with `CC(C)C[C@H](NC(=O)[C@H](CO)NC(=O)CNC(=O)[C@H](Cc1ccccc1)NC(=O)OCc1ccccc1)C(=O)CCl` [Example 15, Z--Phe--Gly--Ser--LeuCH2 Cl] (Cbz-FGSL-CH2Cl), “++ (key: -: no activity; +/-: low activity; +: active at 100 μg/mL; ++: active at 50 μg/mL; +++: active at 10 μg/mL; ++++: active at <5 μg/mL)”. With `CC(C)C[C@H](NC(=O)[C@H](C)NC(=O)CNC(=O)[C@H](Cc1ccccc1)NC(=O)OCc1ccccc1)C(=O)CCl` [Example 1, Z--Phe--Gly--Ala--LeuCH2 Cl] (Cbz-FGAL-CH2Cl), the “Activity (protease-inhibiting activity)” value was “+++ (key: -: no activity; +/-: low activity; +: active at 100 μg/mL; ++: active at 50 μg/mL; +++: active at 10 μg/mL; ++++: active at <5 μg/mL)”. For the compound `CC(C)C[C@H](NC(=O)[C@H](C)NC(=O)CNC(=O)OC(C)(C)C)C(=O)CCl` [Example 7, Boc--Gly--Ala--LeuCH2 Cl] (Boc-Gly-Ala-Leu-CH2Cl), the “Activity (protease-inhibiting activity)” value is given as “++ (key: -: no activity; +/-: low activity; +: active at 100 μg/mL; ++: active at 50 μg/mL; +++: active at 10 μg/mL; ++++: active at <5 μg/mL)”. In the case of `CC(C)CC(NC(=O)C(C)NC(=O)CNC(=O)C(Cc1ccccc1)NC(=O)OCc1ccccc1)C(=O)CBr` (stereo not drawn) [Example 10, Z--Phe--Gly--Ala--LeuCH2 Br], the “Activity (protease-inhibiting activity)” value is reported as “+++ (key: -: no activity; +/-: low activity; +: active at 100 μg/mL; ++: active at 50 μg/mL; +++: active at 10 μg/mL; ++++: active at <5 μg/mL)”.

As to `CC(C)C[C@H](NC(=O)[C@H](C)NC(=O)CNC(=O)[C@H](CC(C)C)NC(=O)OCc1ccccc1)C(=O)CCl` [Example 8, Z--Leu--Gly--Ala--LeuCH2 Cl] (Cbz-LGAL-CH2Cl), the “Activity (protease-inhibiting activity)” value is given as “+++ (key: -: no activity; +/-: low activity; +: active at 100 μg/mL; ++: active at 50 μg/mL; +++: active at 10 μg/mL; ++++: active at <5 μg/mL)”. Still for that read-out and setting: for `CC(=O)N[C@@H](Cc1ccccc1)C(=O)NCC(=O)N[C@@H](C)C(=O)NC(CC(C)C)C(=O)CCl` (stereo partly drawn) [Example 2, acetyl-L-phenylalanyl-L-glycyl-L-alanyl-L-leucyl chloromethyl ketone] (Ac-FGA[ξL]-CH2Cl) the value was “+++ (key: -: no activity; +/-: low activity; +: active at 100 μg/mL; ++: active at 50 μg/mL; +++: active at 10 μg/mL; ++++: active at <5 μg/mL)”; for `CC(C)C(NC(=O)[C@H](C)NC(=O)CNC(=O)[C@H](Cc1ccccc1)NC(=O)OCc1ccccc1)C(=O)CCl` (stereo partly drawn) [Example 11, Z--Phe--Gly--Ala--ValCH2 Cl] (Cbz-FGA[ξV]-CH2Cl), “++ (key: -: no activity; +/-: low activity; +: active at 100 μg/mL; ++: active at 50 μg/mL; +++: active at 10 μg/mL; ++++: active at <5 μg/mL)”; for `COC(=O)CCC(=O)N[C@@H](Cc1ccccc1)C(=O)NCC(=O)N[C@@H](CC(C)C)C(=O)N[C@@H](CCC(=O)OC)C(=O)CCl` [Example 18, MeOSuc--Phe--Gly--Leu--Glu(OCH3)CH2 Cl] (MeOSuc-FGLE(OMe)-CH2Cl), “++++ (key: -: no activity; +/-: low activity; +: active at 100 μg/mL; ++: active at 50 μg/mL; +++: active at 10 μg/mL; ++++: active at <5 μg/mL)”. On the same count and under the same terms, with `C[C@H](NC(=O)CNC(=O)[C@H](Cc1ccccc1)NC(=O)OCc1ccccc1)C(=O)N[C@@H](Cc1ccc(O)cc1)C(=O)CCl` [Example 20, Z--Phe--Gly--Ala--TyrCH2 Cl] (Cbz-FGAY-CH2Cl) the entry was “++ (key: -: no activity; +/-: low activity; +: active at 100 μg/mL; ++: active at 50 μg/mL; +++: active at 10 μg/mL; ++++: active at <5 μg/mL)”.

For `COC(=O)CCC(=O)N[C@@H](Cc1ccccc1)C(=O)NCC(=O)N[C@@H](C)C(=O)N[C@@H](CC(C)C)C(=O)CCl` [Example 4, methoxy-succinyl-L-phenylalanyl-L-glycyl-L-alanyl-L-leucyl chloromethyl ketone] (MeOSuc-FGAL-CH2Cl), the “Activity (protease-inhibiting activity)” value is on record as “+++ (key: -: no activity; +/-: low activity; +: active at 100 μg/mL; ++: active at 50 μg/mL; +++: active at 10 μg/mL; ++++: active at <5 μg/mL)”. Still for that read-out and setting: with `CC(C)C[C@H](NC(=O)[C@H](C)NC(=O)CNC(=O)[C@H](Cc1ccccc1)NS(=O)(=O)c1cccc2c(N(C)C)cccc12)C(=O)CCl` [Example 5, DNS--Phe--Gly--Ala--LeuCH2 Cl] (Dansyl-FGAL-CH2Cl) the entry was “+++ (key: -: no activity; +/-: low activity; +: active at 100 μg/mL; ++: active at 50 μg/mL; +++: active at 10 μg/mL; ++++: active at <5 μg/mL)”; with `CCC(C)C(NC(=O)C(C)NC(=O)CCC(=O)OC)C(=O)NC(Cc1ccccc1)C(=O)NC(CCC(=O)OC)C(=O)CCl` (stereo not drawn) [Example 19, MeOSuc--Ala--Ile--Phe--Glu(OCH3)CH2 Cl] (MeOSuc-AIFE(OMe)-CH2Cl; configuration not given here), “+++ (key: -: no activity; +/-: low activity; +: active at 100 μg/mL; ++: active at 50 μg/mL; +++: active at 10 μg/mL; ++++: active at <5 μg/mL)”; with `CC(C)C[C@H](NC(=O)[C@H](CC(C)C)NC(=O)CNC(=O)[C@H](Cc1ccccc1)NC(=O)OCc1ccccc1)C(=O)CCl` [Example 12, N-carbobenzoxy-L-phenylalanyl-L-glycyl-L-leucyl-L-leucine chloromethyl ketone] (Cbz-FGLL-CH2Cl), “++++ (key: -: no activity; +/-: low activity; +: active at 100 μg/mL; ++: active at 50 μg/mL; +++: active at 10 μg/mL; ++++: active at <5 μg/mL)”.

Another data set deals with T1, subtilisin BPN' (Bacillus amyloliquefaciens, UniProt P00782).
T1 sequence (P00782 108-382): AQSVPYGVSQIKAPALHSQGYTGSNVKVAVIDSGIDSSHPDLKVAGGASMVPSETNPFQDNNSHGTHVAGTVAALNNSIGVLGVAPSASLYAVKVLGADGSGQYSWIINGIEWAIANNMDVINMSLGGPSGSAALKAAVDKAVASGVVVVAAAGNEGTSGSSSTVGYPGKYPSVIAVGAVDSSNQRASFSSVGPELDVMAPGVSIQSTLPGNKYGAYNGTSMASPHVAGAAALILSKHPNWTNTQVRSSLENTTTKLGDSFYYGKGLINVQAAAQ
Test: not given
To be noted: among a series of peptide chloromethyl ketones; cited from earlier work.
Take `CC(=O)N[C@@H](Cc1ccccc1)C(=O)NCC(=O)N[C@@H](C)C(=O)NC(CC(C)C)C(=O)CCl` (stereo partly drawn) [Example 2, acetyl-L-phenylalanyl-L-glycyl-L-alanyl-L-leucyl chloromethyl ketone] (Ac-FGA[ξL]-CH2Cl): the “Inhibition of subtilisin BPN' (relative rate)” value is “fastest inhibitor”.
